Calls of active or inactive are those of the source. No cut-off for these calls is given here.
How the values were obtained:
[1] = test system: HT-1080; assay: Induction of cell morphological changes in human HT-1080 cells at 10 uM incubated for 24 hrs by phase contrast microscopic analysis; type: functional, cell-based
[2] = test system: HT-1080; assay: Antiproliferative activity against human HT-1080 cells incubated for 24 hrs by MTT assay; type: functional, cell-based; conditions: HT-1080, 24 h
[3] = test system: HeLa; assay: Antiproliferative activity against human HeLa cells incubated for 24 hrs by MTT assay; type: functional, cell-based
[4] = test system: PC-3; assay: Antiproliferative activity against human PC-3 cells incubated for 24 hrs by MTT assay; type: functional, cell-based; conditions: PC-3, 24 h
[5] = test system: HCT-116; assay: Antiproliferative activity against human HCT-116 cells incubated for 24 hrs by MTT assay; type: functional, cell-based; conditions: HCT-116, 24 h
[6] = test system: A549; assay: Antiproliferative activity against human A549 cells incubated for 24 hrs by MTT assay; type: functional, cell-based; conditions: A549, 24 h
[7] = test system: SK-MEL-28; assay: Antiproliferative activity against human SK-MEL-28 cells incubated for 24 hrs by MTT assay; type: functional, cell-based; conditions: SK-MEL-28, 24 h
[8] = test system: Ca9-22; assay: Antiproliferative activity against human Ca9-22 cells incubated for 24 hrs by MTT assay; type: functional, cell-based; conditions: Ca9-22, 24 h
[9] = test system: CHL-1; assay: Antiproliferative activity against human CHL-1 cells incubated for 24 hrs by MTT assay; type: functional, cell-based; conditions: CHL-1, 24 h
[10] = test system: HT-1080; assay: Upregulation of HSP70 protein expression in human HT-1080 cells by Western blotting analysis; type: functional, cell-based
[11] = target: T1, Heat shock protein HSP90 (Homo sapiens) (UniProt P07900+P08238); assay: Inhibition of HSP90 in human HT-1080 cells assessed as downregulation of CDK4 protein expression measured after 24 hrs by Western blot analysis; type: cell-based; conditions: dose 3-30 µM
[12] = target: T1, Heat shock protein HSP90 (Homo sapiens); assay: Inhibition of HSP90 in human HT-1080 cells assessed as upregulation of HSP70 protein expression measured after 24 hrs by Western blot analysis; type: cell-based; conditions: dose 3-30 µM
[13] = target: T1, Heat shock protein HSP90 (Homo sapiens); assay: Inhibition of HSP90 in human HT-1080 cells assessed as downregulation of Akt protein expression measured after 24 hrs by Western blot analysis; type: cell-based; conditions: dose 3-30 µM
[14] = test system: HT-1080; assay: Induction of cell morphological changes in human HT-1080 cells at 20 uM incubated for 24 hrs by phase contrast microscopic analysis; type: functional, cell-based
[15] = target: T1, Heat shock protein HSP90 (Homo sapiens); assay: Inhibition of HSP90 in human HT-1080 cells assessed as decrease in CDK4 protein level by measuring half-life of CDK4 protein at 20 uM measured upto 24 hrs in the presence of cycloheximide by Western blotting analysis; type: cell-based

## COC1=C2C[C@@H](C)C[C@H](OC)[C@H](O)[C@@H](C)/C=C(\C)[C@H](OC(N)=O)[C@@H](OC)/C=C\C=C(/C)C(=O)NC(=CC1=O)C2=O
[1]
  Activity: Active

## C/C1=C/CCC2=C[C@H](OC2=O)C(C)(C)/C=C\C1=O
[2]
  IC50: > 10 µM
[3]
  IC50: > 10 µM
[4]
  IC50: > 10 µM
[5]
  IC50: > 10 µM
[6]
  IC50: > 10 µM
[7]
  IC50: > 10 µM
[8]
  IC50: 9.89 µM
[9]
  IC50: > 10 µM

## CC1(C)/C=C/[C@H](O)[C@@]2(C)O[C@@H]2CCC2=C[C@@H]1OC2=O
[2]
  IC50: > 10 µM
[3]
  IC50: > 10 µM
[4]
  IC50: > 10 µM
[5]
  IC50: > 10 µM
[6]
  IC50: > 10 µM
[7]
  IC50: > 10 µM
[8]
  IC50: > 10 µM
[9]
  IC50: > 10 µM

## C/C1=C\CCC2=C[C@H](OC2=O)C(C)(C)/C=C/C1=O
[2]
  IC50: 5.31 µM
[3]
  IC50: 8.64 µM
[4]
  IC50: 3.13 µM
[5]
  IC50: 6.59 µM
[6]
  IC50: 5.51 µM
[7]
  IC50: 5.26 µM
[8]
  IC50: 4.79 µM
[9]
  IC50: 4.71 µM
[10]
  Activity: Active

## C/C1=C/CCC23C(=O)O[C@H]4[C@@H]2[C@@H](C1=O)[C@@H]3C4(C)C
[2]
  IC50: > 10 µM
[3]
  IC50: > 10 µM
[4]
  IC50: > 10 µM
[5]
  IC50: > 10 µM
[6]
  IC50: > 10 µM
[7]
  IC50: > 10 µM
[8]
  IC50: > 10 µM
[9]
  IC50: > 10 µM

## CC1(C)/C=C/C(=O)[C@@]2(C)O[C@H]2CCC2=C[C@@H]1OC2=O
[11]
  inhibition: Active
[12]
  inhibition: Active
[2]
  IC50: 6.54 µM
[13]
  inhibition: Active
[3]
  IC50: 4.78 µM
[4]
  IC50: 1.81 µM
[5]
  IC50: 1.22 µM
[6]
  IC50: 3.02 µM
[7]
  IC50: 3.43 µM
[14]
  Activity: Active
[8]
  IC50: 2.94 µM
[15]
  T1/2: 8 h
[9]
  IC50: 3.63 µM

## C/C1=C\CCC2=C[C@H](OC2=O)C(C)(C)/C=C/[C@@H]1O
[2]
  IC50: > 10 µM
[3]
  IC50: > 10 µM
[4]
  IC50: > 10 µM
[5]
  IC50: > 10 µM
[6]
  IC50: > 10 µM
[7]
  IC50: > 10 µM
[8]
  IC50: > 10 µM
[9]
  IC50: > 10 µM

## CC1(C)/C=C/[C@H](O)[C@@]2(C)O[C@H]2CCC2=C[C@@H]1OC2=O
[2]
  IC50: > 10 µM
[3]
  IC50: > 10 µM
[4]
  IC50: > 10 µM
[5]
  IC50: > 10 µM
[6]
  IC50: > 10 µM
[7]
  IC50: > 10 µM
[8]
  IC50: > 10 µM
[9]
  IC50: > 10 µM

## C/C1=C/CCC2=C[C@H](OC2=O)C(C)(C)/C=C/C1=O
[2]
  IC50: 8.17 µM
[3]
  IC50: 8.19 µM
[4]
  IC50: 2.65 µM
[5]
  IC50: 9.82 µM
[6]
  IC50: 6.62 µM
[7]
  IC50: > 10 µM
[8]
  IC50: 7.52 µM
[9]
  IC50: > 10 µM
[10]
  Activity: Active

## CC1(C)/C=C/C(=O)[C@@]2(C)O[C@@H]2CCC2=C[C@@H]1OC2=O
[2]
  IC50: > 10 µM
[3]
  IC50: > 10 µM
[4]
  IC50: > 10 µM
[5]
  IC50: > 10 µM
[6]
  IC50: > 10 µM
[7]
  IC50: > 10 µM
[8]
  IC50: > 10 µM
[9]
  IC50: > 10 µM

## CC1=CCCC23C(=O)O[C@H]4[C@@H]2[C@@H]([C@H]3C1=O)C4(C)C (some centres undefined)
[2]
  IC50: > 10 µM
[3]
  IC50: > 10 µM
[4]
  IC50: > 10 µM
[5]
  IC50: > 10 µM
[6]
  IC50: > 10 µM
[7]
  IC50: > 10 µM
[8]
  IC50: > 10 µM
[9]
  IC50: > 10 µM

## CC1(C)[C@H]2[C@H]3[C@@H]1OC(=O)C31CC[C@@H]3O[C@]3(C)C(=O)[C@H]21 (some centres undefined)
[2]
  IC50: > 10 µM
[3]
  IC50: > 10 µM
[4]
  IC50: > 10 µM
[5]
  IC50: > 10 µM
[6]
  IC50: > 10 µM
[7]
  IC50: > 10 µM
[8]
  IC50: > 10 µM
[9]
  IC50: > 10 µM

## C/C1=C/CC[C@@H]2C(=O)O[C@H]3[C@@H]2C(=CC3(C)C)C1=O
[2]
  IC50: > 10 µM
[3]
  IC50: > 10 µM
[4]
  IC50: > 10 µM
[5]
  IC50: > 10 µM
[6]
  IC50: > 10 µM
[7]
  IC50: > 10 µM
[8]
  IC50: > 10 µM
[9]
  IC50: > 10 µM
